# Test results as given in US11446287B2, “Compounds and methods for EP300 or CBP modulation and indications therefor” (Opna Immuno-Oncology SA, priority 2019, dated 2022).
# Biological target: T1, Recombinant human EP300 containing the bromodomain (EP300-BD (1040-1161)) (Homo sapiens, UniProt Q09472)
# T1 construct: Recombinant human EP300 bromodomain (EP300-BD (1040-1161)); made in house; host or cells: E. coli BL21-CodonPlus (DE3), modified pET vector
# T1 sequence (Q09472 1040-1161): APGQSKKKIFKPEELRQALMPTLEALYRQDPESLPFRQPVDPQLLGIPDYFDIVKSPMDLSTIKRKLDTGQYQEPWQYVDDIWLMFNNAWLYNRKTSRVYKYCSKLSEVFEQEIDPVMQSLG
# Assay: EP300 Alphascreen binding assay
# Summary of the method: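 Displacement of a biotinylated acetyl-K56 histone H3 peptide from the N-His bromodomain construct (1040-1161) measured by AlphaScreen proximity, beads at 7.5 μg/ml final, read 60 min after addition. Protein, peptide and compound first incubated 1 h at room temperature, pH 7.5 HEPES buffer; IC50 by four-parameter logistic fit.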
row,SMILES,IC50 [nM]
1,"CCc1noc(C)c1-c1cnc2c(c1)c(-c1ccc(C(=O)O)cc1OC(F)(F)F)cn2C1CCOCC1 [P-0400, 4-(5-(3-ethyl-5-methylisoxazol-4-yl)-1-(tetrahydro-2H-pyran-4-yl)-1H-pyrrolo[2,3-b]pyridin-3-yl)-3-(trifluoromethoxy)benzoic acid]",0.1 to 1000
2,"CCc1onc(C)c1-c1cnc2c(c1)c(-c1ccc(C(=O)O)cc1OC(F)(F)F)cn2C1CCOCC1 [P-0401, 4-(5-(5-ethyl-3-methylisoxazol-4-yl)-1-(tetrahydro-2H-pyran-4-yl)-1H-pyrrolo[2,3-b]pyridin-3-yl)-3-(trifluoromethoxy)benzoic acid]",0.1 to 1000
3,"Cc1cc(C(=O)O)cc(OC(C)C)c1-c1cn(C2CCOCC2)c2ncc(-c3c(C)noc3C)cc12 [P-0402, 4-(5-(3,5-dimethylisoxazol-4-yl)-1-(tetrahydro-2H-pyran-4-yl)-1H-pyrrolo[2,3-b]pyridin-3-yl)-3-isopropoxy-5-methylbenzoic acid]",0.1 to 1000
4,"Cc1noc(C)c1-c1cnc2c(c1)c(-c1ccc(C(=O)O)cc1OC(C)C)cn2C1(C)CCOCC1 [P-0403, 4-(5-(3,5-dimethylisoxazol-4-yl)-1-(4-methyltetrahydro-2H-pyran-4-yl)-1H-pyrrolo[2,3-b]pyridin-3-yl)-3-isopropoxybenzoic acid]",0.1 to 1000
5,"Cc1noc(C)c1-c1cnc2c(c1)c(-c1c(Cl)cc(C(=O)O)cc1OC(C)C)cn2C1(C)CCOCC1 [P-0404, 3-chloro-4-(5-(3,5-dimethylisoxazol-4-yl)-1-(4-methyltetrahydro-2H-pyran-4-yl)-1H-pyrrolo[2,3-b]pyridin-3-yl)-5-isopropoxybenzoic acid]",0.1 to 1000
6,"CCOc1nc(C(=O)O)ccc1-c1cn(C2(C)CCOCC2)c2ncc(-c3c(C)noc3C)cc12 [P-0405, 5-(5-(3,5-dimethylisoxazol-4-yl)-1-(4-methyltetrahydro-2H-pyran-4-yl)-1H-pyrrolo[2,3-b]pyridin-3-yl)-6-ethoxypicolinic acid]",0.1 to 1000
7,"CCOc1nc(C(=O)O)c(Cl)cc1-c1cn([C@H]2CCOC2)c2ncc(-c3c(C)noc3C)cc12 [P-0406, (S)-3-chloro-5-(5-(3,5-dimethylisoxazol-4-yl)-1-(tetrahydrofuran-3-yl)-1H-pyrrolo[2,3-b]pyridin-3-yl)-6-ethoxypicolinic acid]",0.1 to 1000
8,"Cc1noc(C)c1-c1cnc2c(c1)c(-c1ccc(C(=O)O)cc1OC(C)C)cn2C1(C)CCOC1 (stereo not drawn) [P-0407, 4-(5-(3,5-dimethylisoxazol-4-yl)-1-(3-methyltetrahydrofuran-3-yl)-1H-pyrrolo[2,3-b]pyridin-3-yl)-3-isopropoxybenzoic acid]",0.1 to 1000
9,"Cc1noc(C)c1-c1cnc2c(c1)c(-c1c(Cl)cc(C(=O)O)cc1OC(C)C)cn2C1(C)CCOC1 (stereo not drawn) [P-0408, 3-chloro-4-(5-(3,5-dimethylisoxazol-4-yl)-1-(3-methyltetrahydrofuran-3-yl)-1H-pyrrolo[2,3-b]pyridin-3-yl)-5-isopropoxybenzoic acid]",0.1 to 1000
10,"Cc1noc(C)c1-c1cnc2c(c1)c(-c1c(Cl)cc(C(=O)O)cc1OC1CC1)cn2-c1ncccc1C#N [P-0409, 3-chloro-4-(1-(3-cyanopyridin-2-yl)-5-(3,5-dimethylisoxazol-4-yl)-1H-pyrrolo[2,3-b]pyridin-3-yl)-5-cyclopropoxybenzoic acid]",0.1 to 1000
11,"Cc1noc(C)c1-c1cnc2c(c1)c(-c1c(F)cc(C(=O)O)cc1OC1CCC1)cn2C1CCOCC1 [P-0410, 3-cyclobutoxy-4-(5-(3,5-dimethylisoxazol-4-yl)-1-(tetrahydro-2H-pyran-4-yl)-1H-pyrrolo[2,3-b]pyridin-3-yl)-5-fluorobenzoic acid]",0.1 to 1000
12,"CCOc1nc(C(=O)O)cc(C)c1-c1cn(C2CCOCC2)c2ncc(-c3c(C)noc3C)cc12 [P-0411, 5-(5-(3,5-dimethylisoxazol-4-yl)-1-(tetrahydro-2H-pyran-4-yl)-1H-pyrrolo[2,3-b]pyridin-3-yl)-6-ethoxy-4-methylpicolinic acid]",0.1 to 1000
13,"CCOc1nc(C(=O)O)cc(C)c1-c1cn(-c2ccc(F)cc2F)c2ncc(-c3c(C)noc3C)cc12 [P-0412, 5-(1-(2,4-difluorophenyl)-5-(3,5-dimethylisoxazol-4-yl)-1H-pyrrolo[2,3-b]pyridin-3-yl)-6-ethoxy-4-methylpicolinic acid]",0.1 to 1000
14,"Cc1nnn(C)c1-c1cnc2c(c1)c(-c1ccc(C(=O)O)cc1OC1CC1)cn2C1CCOCC1 [P-0413, 3-cyclopropoxy-4-(5-(1,4-dimethyl-1H-1,2,3-triazol-5-yl)-1-(tetrahydro-2H-pyran-4-yl)-1H-pyrrolo[2,3-b]pyridin-3-yl)benzoic acid]",0.1 to 1000
15,"CCOc1cc(C(=O)O)nc(OCC)c1-c1cn(-c2ccccc2F)c2ncc(-c3c(C)noc3C)cc12 [P-0414, 5-(5-(3,5-dimethylisoxazol-4-yl)-1-(2-fluorophenyl)-1H-pyrrolo[2,3-b]pyridin-3-yl)-4,6-diethoxypicolinic acid]",0.1 to 1000
16,"CCOc1cc(C(=O)O)nc(OCC)c1-c1cn([C@@H](C)c2ccccn2)c2ncc(-c3c(C)noc3C)cc12 [P-0415, (S)-5-(5-(3,5-dimethylisoxazol-4-yl)-1-(1-(pyridin-2-yl)ethyl)-1H-pyrrolo[2,3-b]pyridin-3-yl)-4,6-diethoxypicolinic acid]",0.1 to 1000
17,"CCOc1nc(C(=O)O)c(C)cc1-c1cn(C(C2CC2)C2CC2)c2ncc(-c3c(C)noc3C)cc12 [P-0416, 5-(1-(dicyclopropylmethyl)-5-(3,5-dimethylisoxazol-4-yl)-1H-pyrrolo[2,3-b]pyridin-3-yl)-6-ethoxy-3-methylpicolinic acid]",0.1 to 1000
18,"CCOc1nc(C(=O)O)cc(C)c1-c1cn(C(C2CC2)C2CC2)c2ncc(-c3c(C)noc3C)cc12 [P-0417, 5-(1-(dicyclopropylmethyl)-5-(3,5-dimethylisoxazol-4-yl)-1H-pyrrolo[2,3-b]pyridin-3-yl)-6-ethoxy-4-methylpicolinic acid]",0.1 to 1000
19,"Cc1noc(C)c1-c1cnc2c(c1)c(-c1ccnc(C(=O)O)c1C)cn2C(C1CC1)C1CC1 [P-0418, 4-(1-(dicyclopropylmethyl)-5-(3,5-dimethylisoxazol-4-yl)-1H-pyrrolo[2,3-b]pyridin-3-yl)-3-methylpicolinic acid]",0.1 to 1000
20,"Cc1noc(C)c1-c1cnc2c(c1)c(-c1ccnc(C(=O)O)c1C)cn2C1CCOCC1 [P-0419, 4-(5-(3,5-dimethylisoxazol-4-yl)-1-(tetrahydro-2H-pyran-4-yl)-1H-pyrrolo[2,3-b]pyridin-3-yl)-3-methylpicolinic acid]",0.1 to 1000
21,"CCOc1cc(C(=O)O)nc(OCC)c1-c1cn(C(C2CC2)C2CC2)c2ncc(-c3c(C)noc3C)cc12 [P-0420, 5-(1-(dicyclopropylmethyl)-5-(3,5-dimethylisoxazol-4-yl)-1H-pyrrolo[2,3-b]pyridin-3-yl)-4,6-diethoxypicolinic acid]",0.1 to 1000
22,"CCOc1cc(C(=O)O)nc(OCC)c1-c1cn(-c2ncccc2C#N)c2ncc(-c3c(C)noc3C)cc12 [P-0421, 5-(1-(3-cyanopyridin-2-yl)-5-(3,5-dimethylisoxazol-4-yl)-1H-pyrrolo[2,3-b]pyridin-3-yl)-4,6-diethoxypicolinic acid]",0.1 to 1000
23,"CCOc1cc(C(=O)O)nc(OCC)c1-c1cn(-c2ncccc2C(N)=O)c2ncc(-c3c(C)noc3C)cc12 [P-0422, 5-(1-(3-carbamoylpyridin-2-yl)-5-(3,5-dimethylisoxazol-4-yl)-1H-pyrrolo[2,3-b]pyridin-3-yl)-4,6-diethoxypicolinic acid]",0.1 to 1000
24,"CCOc1cc(C(=O)O)nc(OCC)c1-c1cn(-c2ccc(C#N)cc2F)c2ncc(-c3c(C)noc3C)cc12 [P-0423, 5-(1-(4-cyano-2-fluorophenyl)-5-(3,5-dimethylisoxazol-4-yl)-1H-pyrrolo[2,3-b]pyridin-3-yl)-4,6-diethoxypicolinic acid]",0.1 to 1000
25,"CCOc1cc(C(=O)O)nc(OCC)c1-c1cn(-c2cnc(C3CC3)nc2)c2ncc(-c3c(C)noc3C)cc12 [P-0424, 5-(1-(2-cyclopropylpyrimidin-5-yl)-5-(3,5-dimethylisoxazol-4-yl)-1H-pyrrolo[2,3-b]pyridin-3-yl)-4,6-diethoxypicolinic acid]",0.1 to 1000
26,"CCOc1cc(C(=O)O)nc(OCC)c1-c1cn(C2CCC(F)(F)CC2)c2ncc(-c3c(C)noc3C)cc12 [P-0425, 5-(1-(4,4-difluorocyclohexyl)-5-(3,5-dimethylisoxazol-4-yl)-1H-pyrrolo[2,3-b]pyridin-3-yl)-4,6-diethoxypicolinic acid]",0.1 to 1000
27,"CCOc1cc(C(=O)O)ncc1-c1cn(C(C2CC2)C2CC2)c2ncc(-c3c(C)noc3C)cc12 [P-0427, 5-(1-(dicyclopropylmethyl)-5-(3,5-dimethylisoxazol-4-yl)-1H-pyrrolo[2,3-b]pyridin-3-yl)-4-ethoxypicolinic acid]",0.1 to 1000
28,"CCOc1cc(C(=O)O)ncc1-c1cn(C2CCOCC2)c2ncc(-c3c(C)noc3C)cc12 [P-0428, 5-(5-(3,5-dimethylisoxazol-4-yl)-1-(tetrahydro-2H-pyran-4-yl)-1H-pyrrolo[2,3-b]pyridin-3-yl)-4-ethoxypicolinic acid]",0.1 to 1000
29,"CCOc1cc(C(=O)O)nc(OCC)c1-c1cn(-c2cn(C(F)F)nc2C)c2ncc(-c3c(C)noc3C)cc12 [P-0429, 5-(1-(1-(difluoromethyl)-3-methyl-1H-pyrazol-4-yl)-5-(3,5-dimethylisoxazol-4-yl)-1H-pyrrolo[2,3-b]pyridin-3-yl)-4,6-diethoxypicolinic acid]",0.1 to 1000
30,"CCOc1cc(C(=O)O)nc(OCC)c1-c1cn(-c2cn(CC)nc2C)c2ncc(-c3c(C)noc3C)cc12 [P-0430, 5-(5-(3,5-dimethylisoxazol-4-yl)-1-(1-ethyl-3-methyl-1H-pyrazol-4-yl)-1H-pyrrolo[2,3-b]pyridin-3-yl)-4,6-diethoxypicolinic acid]",0.1 to 1000
